Assay results as given in publication PMC11002876, “KcsA-Kv1.x chimeras with complete ligand-binding sites provide improved predictivity for screening selective Kv1.x blockers” (The Journal of Biological Chemistry, 2024).
Like-named read-outs stand apart in the source and are kept apart here. Where a SMILES comes first, the peptide text is derived from it.

What was measured:
KcsA-Kv1.3 T+F chimera = target: T1, KcsA-Kv1.3 T+F chimera (Streptomyces lividans, UniProt P0A334, A54D/A57S/G53D/G56T/I60S/L59F/L81M/Q58G/R52A/R64D/T61S/Y62I/Y82H); test: Phage-binding competition assay, KcsA-Kv1.3 T+F; design: species or system human Kv1.3 turret and filter in Streptomyces lividans KcsA; conditions: for rank order of affinities, competition, KcsA-Kv1.3 T+F: Fig. 6F; for Rank, T+F chimera (Kv1.3): rank by competition IC50 among Vm24, HgTx1, KTX1
T1 construct: made in house; host or cells: E. coli C41(DE3) (pET45b)
T1 sequence (P0A334 1-160 R52A/G53D/A54D/G56T/A57S/Q58G/L59F/I60S/T61S/Y62I/R64D/L81M/Y82H): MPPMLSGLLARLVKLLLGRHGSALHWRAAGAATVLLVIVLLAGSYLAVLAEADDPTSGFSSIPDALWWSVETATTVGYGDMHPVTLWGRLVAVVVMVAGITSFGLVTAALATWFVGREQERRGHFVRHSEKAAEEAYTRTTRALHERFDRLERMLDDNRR
Experimental: Phage stock solutions were diluted to working concentration with phage resuspension buffer supplemented with 2 mM DDM. For protein immobilization, the following amounts were used in a final volume of 50 μl/well: wt KcsA, 0.1 μg; KcsA-Kv1.1 T-only, 0.005 μg; KcsA-Kv1.1 T+F, 0.02 μg; KcsA-Kv1.2 T-only, 0.01 μg; KcsA-Kv1.2 T+F, 0.1 μg; KcsA-Kv1.3 T-only, 0.01 μg; and KcsA-Kv1.3 T+F, 0.1 μg. Protein samples were diluted in 50 μl of storage buffer (20 mM Tris pH8.0, 300 mM KCl, 2 mM DDM) and were added to the designated wells of a Pierce Clear, 96-Well Nickel Coated Plate (15442, Thermo Fisher Scientific), then incubated for 1 h at room temperature on a horizontal shaker at 130 rpm. The plate was blocked for 1 h at room temperature with 180 μl/well TBS-BSA supplemented with 1 mM DDM. Following blocking, the wells were washed 4× with washing buffer (300 μl TBS-Tween, 0.1% v/v) using a Wellwash Versa microplate washer (Thermo Fisher Scientific); then 50 μl phage solution (in TBS-BSA-Tween, 0.1% v/v, 2 mM DDM) at determined phage concentration was added to the wells and incubated for 1 h at room temperature on a horizontal shaker. The plate was washed 4× with washing buffer, then 50 μl anti-M13 IgG HRP (MA5-36125, Invitrogen) diluted to 1:2500 in TBS-Tween (0.1% v/v) was added to the wells and incubated for 1 h at room temperature. The plate was washed again 4× with 300 μl/well washing buffer. Finally, 50 μl/well 1-Step Ultra TMB-ELISA solution (34028, Thermo Fisher Scientific) was added to the wells, and the developing signal was stopped with 50 μl 1M HCl after 5 to 10 min. The light absorbance signal was read at 450 nm with Byonoy absorbance 96 plate reader (Byonoy GmbH).
For protein immobilization, the following amounts were used in a final volume of 50 μl/well: KcsA-Kv1.1 T-only, 0.005 μg; KcsA-Kv1.1 T+F, 0.01 μg; KcsA-Kv1.2 T-only, 0.025 μg; KcsA-Kv1.2 T+F, 0.0125 μg; KcsA-Kv1.3 T-only, 0.01 μg; and KcsA-Kv1.3 T+F, 0.1 μg. Protein samples were diluted in storage buffer. Binding of given concentrations of relevant ligand-displaying phages quantified by light absorbance ([…]) were investigated in a similar manner as in phage ELISA-binding assay, while different concentrations of competing toxin test substances were applied simultaneously. The results were converted to percent inhibitions (percent displacement) of the indicator phage binding, and relative affinities of the tested toxins were assessed by plotting percent displacements against log concentrations and determining half maximal inhibitory concentrations (IC50) by sigmoidal curve fitting using “Sigmoidal dose-response (variable slope) with least squares method” algorithm in GraphPad Prism 8 using the following equation: Y=Bottom+Top−Bottom/1+10^(LogEC50−×)⋅HillSlope

human Kv1.2 = conditions: cited from earlier work; for IC50: human Kv1.2 channel blocking, patch-clamp, read-out: IC50, Kv1.x blocking (Kv1.2)
Experimental: Elution was done at 1 ml/min flow rate. Eluted peak fractions (1 ml) were analyzed by SDS-PAGE, then pooled and concentrated. The concentration of the purified protein was determined by measuring the UV absorbance at 280 nm using the protein extinction coefficient calculator in the ProtParam tool of Ex ...

[1] = HgTx1-phage competition, T+F KcsA-Kv1.3, value given in figure, sigmoidal fit to means of three replicates, read-out: IC50 (Fig. 6F)

CC[C@H](C)[C@@H]1NC(=O)CNC(=O)[C@H](Cc2ccccc2)NC(=O)[C@H](CCC(N)=O)NC(=O)[C@H](C)NC(=O)[C@H](CCCCN)NC(=O)[C@@H]2CSSC[C@@H](C(=O)N[C@@H](Cc3ccc(O)cc3)C(=O)N3CCC[C@H]3C(=O)N[C@@H](Cc3c[nH]cn3)C(=O)O)NC(=O)[C@H](CCCCN)NC(=O)[C@@H]3CSSC[C@H](NC(=O)[C@H](CCC(N)=O)NC(=O)[C@H](CCCCN)NC(=O)[C@@H]4CCCN4C(=O)[C@H](CO)NC(=O)[C@H]([C@@H](C)O)NC(=O)[C@@H](NC(=O)[C@H](CCCCN)NC(=O)[C@@H](NC(=O)[C@H](CC(=O)O)NC(=O)[C@@H](NC(=O)[C@@H](NC(=O)[C@@H](N)[C@@H](C)O)C(C)C)[C@@H](C)CC)C(C)C)CSSC[C@H](NC(=O)[C@H](CCCCN)NC(=O)[C@H](C)NC(=O)CNC(=O)[C@H](C)NC(=O)[C@H](CCCNC(=N)N)NC1=O)C(=O)N[C@@H](CCSC)C(=O)N[C@@H](CC(N)=O)C(=O)NCC(=O)N[C@@H](CCCCN)C(=O)N3)C(=O)N[C@@H](CC(C)C)C(=O)N1CCC[C@H]1C(=O)N1CCC[C@H]1C(=O)N2 [HgTx1, Hongotoxin-1] (HELM PEPTIDE1{T.V.I.D.V.K.C.T.S.P.K.Q.C.L.P.P.C.K.A.Q.F.G.I.R.A.G.A.K.C.M.N.G.K.C.K.C.Y.P.H}$PEPTIDE1,PEPTIDE1,7:R3-29:R3|PEPTIDE1,PEPTIDE1,13:R3-34:R3|PEPTIDE1,PEPTIDE1,17:R3-36:R3$$$V2.0; N-terminus and C-terminus assumed)
IC50 (KcsA-Kv1.3 T+F chimera; [1]): 0.107 nM | rank order of affinities, competition, KcsA-Kv1.3 T+F (KcsA-Kv1.3 T+F chimera; HgTx1-phage competition): Vm24 > HgTx1 > KTX1 | Rank, T+F chimera (Kv1.3) (KcsA-Kv1.3 T+F chimera): 2 | inhibition of Kv1.2, in words (human Kv1.2): equivalent high potency

CC[C@H](C)[C@@H]1NC(=O)[C@@H]2CSSC[C@H](NC(=O)[C@H](CO)NC(=O)[C@@H](N)C(C)C)C(=O)N[C@@H]([C@@H](C)O)C(=O)NCC(=O)N[C@@H](CO)C(=O)N[C@@H](CCCCN)C(=O)N[C@@H](CC(=O)O)C(=O)N[C@@H](CSSC[C@@H](C(=O)N[C@@H](CCCCN)C(=O)N[C@H]3CSSC[C@@H](C(N)=O)NC(=O)CNC(=O)[C@H](Cc4ccc(O)cc4)NC3=O)NC(=O)[C@H](CO)NC(=O)[C@H](CCCCN)NC(=O)[C@H](CC(N)=O)NC1=O)C(=O)N[C@@H](Cc1ccc(O)cc1)C(=O)N[C@@H](C)C(=O)N1CCC[C@H]1C(=O)N[C@H]1CSSC[C@H](NC(=O)CNC(=O)[C@H]([C@@H](C)O)NC(=O)[C@H](CCC(N)=O)NC(=O)[C@H](CCCCN)NC(=O)[C@H](CCCNC(=N)N)NC1=O)C(=O)N1CCC[C@H]1C(=O)N[C@@H](CC(N)=O)C(=O)N[C@@H](C)C(=O)N[C@@H](CCCCN)C(=O)N2 [MTX, Maurotoxin] (HELM PEPTIDE1{V.S.C.T.G.S.K.D.C.Y.A.P.C.R.K.Q.T.G.C.P.N.A.K.C.I.N.K.S.C.K.C.Y.G.C.[am]}$PEPTIDE1,PEPTIDE1,3:R3-24:R3|PEPTIDE1,PEPTIDE1,9:R3-29:R3|PEPTIDE1,PEPTIDE1,13:R3-19:R3|PEPTIDE1,PEPTIDE1,31:R3-34:R3$$$V2.0; N-terminus and C-terminus assumed)
block of native Kv1.2, in words (human Kv1.2): potent blocker | IC50 (human Kv1.2): 0.8 nM

CC[C@H](C)[C@H](NC(=O)[C@H](CCC(=O)O)NC(=O)[C@@H](NC(=O)CN)C(C)C)C(=O)N[C@@H](CC(N)=O)C(=O)N[C@H](C(=O)N[C@@H](CCCCN)C(=O)N[C@H]1CSSC[C@@H]2NC(=O)[C@H](CCCCN)NC(=O)CNC(=O)[C@H](Cc3ccccc3)NC(=O)[C@H](CCCNC(=N)N)NC(=O)[C@H](CCSC)NC(=O)CNC(=O)[C@H](C)NC(=O)[C@H](CC(=O)O)NC(=O)[C@H](CCCCN)NC(=O)[C@@H]3CSSC[C@@H](C(=O)N[C@H](C(=O)N4CCC[C@H]4C(=O)N[C@@H](CCCCN)C(=O)O)[C@@H](C)O)NC(=O)[C@H](Cc4c[nH]cn4)NC(=O)[C@H](CSSC[C@H](NC(=O)[C@H](CCC(N)=O)NC(=O)[C@@H]4CCCN4C(=O)[C@H](CO)NC(=O)CNC(=O)[C@H](CO)NC1=O)C(=O)N[C@@H](CC(C)C)C(=O)N[C@@H](CCCCN)C(=O)N1CCC[C@H]1C(=O)N3)NC(=O)[C@H](CCCCN)NC(=O)[C@H](CCCNC(=N)N)NC(=O)[C@H](CC(N)=O)NC(=O)[C@H](CCSC)NC2=O)C(C)C [KTX1, Kaliotoxin-1]
rank order of affinities, competition, KcsA-Kv1.3 T+F (KcsA-Kv1.3 T+F chimera; HgTx1-phage competition): Vm24 > HgTx1 > KTX1 | IC50 (KcsA-Kv1.3 T+F chimera; displacement of HgTx1-phage, KcsA-Kv1.3 T+F 0.1 μg/well on nickel-coated plate, phage ELISA absorbance, mean ± SD (n = 3), read-out: IC50, T+F chimera (Kv1.3)): 98.2 nM | Rank, T+F chimera (Kv1.3) (KcsA-Kv1.3 T+F chimera): 3 | IC50 (human Kv1.2): > 1000 nM

CC[C@H](C)[C@H](NC(=O)[C@H](C)NC(=O)[C@H](C)NC(=O)[C@H](C)N)C(=O)N[C@@H](CO)C(=O)N[C@H]1CSSC[C@@H]2NC(=O)[C@H](CCCCN)NC(=O)CNC(=O)[C@H](CC(N)=O)NC(=O)[C@H](CCCCN)NC(=O)[C@@H]3CSSC[C@@H](C(N)=O)NC(=O)[C@H](Cc4ccc(O)cc4)NC(=O)[C@H](Cc4ccc(O)cc4)NC(=O)[C@@H]4CSSC[C@H](NC(=O)[C@H](CCCCN)NC(=O)[C@@H]5CCCN5C(=O)[C@@H]5CCCN5C(=O)[C@H](CSSC[C@H](NC(=O)[C@H](CCCCN)NC(=O)[C@H](CCCNC(=N)N)NC(=O)[C@H](CC(N)=O)NC(=O)[C@H](CCSC)NC2=O)C(=O)N[C@@H](CCCCN)C(=O)N4)NC(=O)[C@H](CCC(=O)O)NC(=O)[C@@H]2CCCN2C(=O)[C@H](CO)NC(=O)CNC(=O)[C@H](C(C)C)NC1=O)C(=O)N[C@@H](CCCNC(=N)N)C(=O)N[C@@H](C)C(=O)N[C@@H](CCC(N)=O)C(=O)NCC(=O)N3 [Vm24, Vm24 toxin]
IC50 (KcsA-Kv1.3 T+F chimera; [1]): 0.0359 nM | rank order of affinities, competition, KcsA-Kv1.3 T+F (KcsA-Kv1.3 T+F chimera; HgTx1-phage competition): Vm24 > HgTx1 > KTX1 | Rank, T+F chimera (Kv1.3) (KcsA-Kv1.3 T+F chimera): 1

CC[C@H](C)[C@@H]1NC(=O)[C@@H](NC(=O)[C@H](CO)NC(=O)[C@@H](N)CCCNC(=N)N)CSSC[C@@H](C(=O)O)NC(=O)[C@H]([C@@H](C)O)NC(=O)CNC(=O)[C@@H]2CSSC[C@@H]3NC(=O)[C@H](CCC(N)=O)NC(=O)[C@H](Cc4ccccc4)NC(=O)[C@H](C)NC(=O)[C@H]([C@@H](C)O)NC(=O)[C@H](CSSC[C@H](NC(=O)[C@H](Cc4ccccc4)NC(=O)[C@H](CO)NC(=O)[C@H](CC(C)C)NC(=O)[C@H](CCCNC(=N)N)NC(=O)[C@H](Cc4ccc(O)cc4)NC(=O)[C@H](CCCCN)NC(=O)[C@H](CCSC)NC(=O)[C@H](CO)NC(=O)[C@H](Cc4c[nH]cn4)NC(=O)[C@H](CCCCN)NC3=O)C(=O)N[C@@H](CCCNC(=N)N)C(=O)N[C@@H](CCCCN)C(=O)N[C@@H]([C@@H](C)O)C(=O)N2)NC(=O)[C@H](CCCNC(=N)N)NC(=O)[C@H](CO)NC(=O)[C@H](CCCCN)NC(=O)[C@@H]2CCCN2C(=O)[C@H]([C@@H](C)CC)NC(=O)[C@H]([C@@H](C)O)NC(=O)[C@H](CC(=O)O)NC1=O [ShK, Stichodactyla toxin]
IC50 (human Kv1.2): 9 nM
